Where a name gives a salt, the structure may show the parent alone.
tested on: Acinetobacter baumannii ATCC 17978; test: Antimicrobial susceptibility testing: 90% growth inhibitory concentration (IC90) determination; type: cell-based; details: 90% growth inhibitory concentration; Acinetobacter baumannii ATCC17978; Iso-Sensitest broth, OD 600 nm over 16h; read-out: ATCC17978 IC90
Protocol: Antimicrobial Susceptibility Testing:
90% Growth Inhibitory Concentration (IC90) Determination
The in vitro antimicrobial activity of the compounds was determined according to the following procedure:
The assay used a 10-points Iso-Sensitest broth medium to measure quantitatively the in vitro activity of the compounds against Acinetobacter baumannii ATCC 17978 and Acinetobacter baumannii ATCC 17961.
Stock compounds in DMSO were serially twofold diluted (e.g. range from 50 to 0.097 μM final concentration) in 384 wells microtiter plates and inoculated with 49 μl the bacterial suspension in Iso-Sensitest medium to have a final cell concentration of ˜5×10^(5) CFU/ml in a final volume/well of 50 ul/well. Microtiter plates were incubated at 35±2° C.
Bacterial cell growth was determined with the measurement of optical density at λ=600 nm each 20 minutes over a time course of 16h. Growth inhibition was calculated during the logarithmic growth of the bacterial cells with determination of the concentration inhibiting 50% (IC50) and 90% (IC90) of the growth.
Table 1 provides the 90% growth inhibitory concentrations (IC90) in micromoles per liter of the compounds of present invention obtained against the strain Acinetobacter baumannii ATCC17978 and Acinetobacter baumannii ATCC17961.

Compound | IC90 [µM]
Cc1cc(Nc2nccn3c(-c4ccc(OC(F)F)c(F)c4)cnc23)ccc1C(=O)N(C)CCC1CCNCC1 [Example 89, 4-((3-(4-(difluoromethoxy)-3-fluorophenyl)imidazo [1,2-a]pyrazin-8-yl)amino)-N,2-dimethyl-N-(2-(piperidin-4-yl)ethyl)benzamide hydrochloride] | 0.23
Cc1cc(Nc2nccn3c(-c4ccc(Cl)c(F)c4F)cnc23)ccc1C(=O)NC(C)CCN (stereo not drawn) [Example 318, N-(4-aminobutan-2-yl)-4-[[3-(4-chloro-2,3-difluorophenyl)imidazo[1,2-a]pyrazin-8-yl]amino]-2-methylbenzamide; hydrochloride] | 2.5
CCc1cc(Nc2nccn3c(-c4ccc(OC(F)F)c(F)c4F)cnc23)ccc1C(=O)N[C@@H](C)CN [Example 312, N-[(2S)-1-aminopropan-2-yl]-4-[[3-[4-(difluoromethoxy)-2,3-difluorophenyl]imidazo[1,2-a]pyrazin-8-yl]amino]-2-ethylbenzamide; hydrochloride] | 1.2
CCc1cc(Nc2nccn3c(-c4ccc(OC)c(F)c4F)cnc23)ccc1C(=O)NCCCCCCCN [Example 517, N-(7-aminoheptyl)-4-((3-(2,3-difluoro-4-methoxyphenyl)imidazo[1,2-a]pyrazin-8-yl)amino)-2-ethylbenzamide hydrochloride] | 0.067
COc1ccc(-c2cnc3c(Nc4ccc(C(=O)N(C)CC5CNC5)c(C)c4)nccn23)cc1F [Example 384, N-(azetidin-3-ylmethyl)-4-[[3-(3-fluoro-4-methoxyphenyl)imidazo[1,2-a]pyrazin-8-yl]amino]-N,2-dimethylbenzamide] | 0.88

same assay, conditions: Acinetobacter baumannii, ATCC17978, 16 h, 90% growth inhibitory concentration; Acinetobacter baumannii ATCC17978; Iso-Sensitest broth, OD 600 nm over 16h; read-out: ATCC17978 IC90

IC90 [µM] | Compound
0.041 | CCc1cc(Nc2nccn3c(-c4ccc(OC)c(F)c4F)cnc23)ccc1C(=O)NCCCCCCN1CCCCC1 [Example 534, 4-((3-(2,3-difluoro-4-methoxyphenyl)imidazo[1,2-a]pyrazin-8-yl)amino)-2-ethyl-N-(6-(piperidin-1-yl)hexyl)benzamide]
0.15 | CCc1cc(Nc2nccn3c(-c4ccc(OC(F)F)c(F)c4F)cnc23)ccc1C(=O)NCC1CCNC1 (stereo not drawn) [Example 550, 4-[[3-[4-(difluoromethoxy)-2,3-difluorophenyl]imidazo[1,2-a]pyrazin-8-yl]amino]-2-ethyl-N-(pyrrolidin-3-ylmethyl)benzamide; formic acid]
0.95 | CCc1cc(Nc2nccn3c(-c4ccc(Cl)c(F)c4F)cnc23)ccc1C(=O)NCCCN1CCC1 [Example 386, N-[3-(azetidin-1-yl)propyl]-4-[[3-(4-chloro-2,3-difluorophenyl)imidazo[1,2-a]pyrazin-8-yl]amino]-2-ethylbenzamide]
0.3 | CCc1cc(Nc2nccn3c(-c4ccc(OC)c(F)c4F)cnc23)ccc1C(=O)NCC(=O)NCCN1CCC1 [Example 446, N-[2-[2-(azetidin-1-yl)ethylamino]-2-oxo-ethyl]-4-[[3-(2,3-difluoro-4-methoxy-phenyl)imidazo[1,2-a]pyrazin-8-yl]amino]-2-ethyl-benzamide; formic acid]
0.25 | CCc1cc(Nc2nccn3c(-c4ccc(OC)c(F)c4F)cnc23)ccc1C(=O)NCC(=O)NCCN(C)C [Example 434, 4-[[3-(2,3-difluoro-4-methoxy-phenyl)imidazo[1,2-a]pyrazin-8-yl]amino]-N-[2-[2-(dimethylamino)ethylamino]-2-oxo-ethyl]-2-ethyl-benzamide; formic acid]
5 | Cc1cc(Nc2nccn3c(-c4ccc(OC(F)F)cc4)cnc23)ccc1C(=O)N(CCO)CCO [Example 262, 4-[[3-[4-(difluoromethoxy)phenyl]im-idazo[1,2-a]pyrazin-8-yl]amino]-N,N-bis(2-hydroxyethyl)-2-methylbenzamide]
0.23 | CCc1cc(Nc2nccn3c(-c4ccc(OC)c(F)c4F)cnc23)ccc1C(=O)NCC(=O)NCCN [Example 430, N-[2-(2-aminoethylamino)-2-oxo-ethyl]-4-[[3-(2,3-difluoro-4-methoxy-phenyl)imidazo[1,2-a]pyrazin-8-yl]amino]-2-ethyl-benzamide; formic acid]
0.94 | CCc1cc(Nc2nccn3c(-c4ccc(OC)c(F)c4F)cnc23)ccc1C(=O)NCCCNC(=O)[C@H](CCCNC(=N)N)NC(=O)CC[C@H](N)C(=O)O [Example 407, N5-((S)-1-((3-(4-((3-(2,3-difluoro-4-methoxyphenyl)imidazo[1,2-a]pyrazin-8-yl)amino)-2-ethylbenzamido)propyl)amino)-5-guanidino-1-oxopentan-2-yl)-L-glutamine trihydrochloride]
0.2 | CCc1cc(Nc2nccn3c(-c4ccc(OC)c(F)c4F)cnc23)ccc1C(=O)NCCNC(=O)CC(O)CN (stereo not drawn) [Example 376, N-[2-[(4-amino-3-hydroxybutanoyl)amino]ethyl]-4-[[3-(2,3-difluoro-4-methoxyphenyl)imidazo[1,2-a]pyrazin-8-yl]amino]-2-ethylbenzamide]
0.3 | COc1ccc(-c2cnc3c(Nc4ccc5c(c4)CCN(CCO)C5=O)nccn23)c(F)c1F [Example 302, 6-[[3-(2,3-difluoro-4-methoxyphenyl)imidazo[1,2-a]pyrazin-8-yl]amino]-2-(2-hydroxyethyl)-3,4-dihydroisoquinolin-1-one]
0.05 | CCc1cc(Nc2nccn3c(-c4ccc(OC)c(F)c4F)cnc23)ccc1C(=O)NCCCn1ccnc1 [Example 290, 4-[[3-(2,3-difluoro-4-methoxyphenyl)imidazo[1,2-a]pyrazin-8-yl]amino]-2-ethyl-N-(3-imidazol-1-ylpropyl)benzamide]
0.32 | CCc1cc(Nc2nccn3c(-c4ccc(OC)c(F)c4F)cnc23)ccc1C(=O)NCC(O)CNC(=O)CC(O)CN (stereo not drawn) [Example 411, N-(3-(4-amino-3-hydroxybutanamido)-2-hydroxypropyl)-4-((3-(2,3-difluoro-4-methoxyphenyl)imidazo[1,2-a]pyrazin-8-yl)amino)-2-ethylbenzamide hydrochloride]
0.56 | CCc1cc(Nc2nccn3c(-c4ccc(Oc5ccc(OC)cn5)c(F)c4F)cnc23)ccc1C(=O)NCCNC(=O)[C@H](N)CCNC(=N)N [Example 450, N-[2-[[(2R)-2-amino-4-guanidino-butanoyl]amino]ethyl]-4-[[3-[2,3-difluoro-4-[(5-methoxy-2-pyridyl)oxy]phenyl]imidazo [1,2-a]pyrazin-8-yl]amino]-2-ethyl-benzamide]
0.09 | CCc1cc(Nc2nccn3c(-c4ccc(OC)c(F)c4F)cnc23)ccc1C(=O)NCCNC(=O)CCN [Example 364, N-[2-(3-aminopropanoylamino)ethyl]-4-[[3-(2,3-difluoro-4-methoxyphenyl)imidazo[1,2-a]pyrazin-8-yl]amino]-2-ethylbenzamide]
0.47 | COc1ccc(-c2cnc3c(Nc4ccc(C(=O)N5CCC(C(=O)NCC6CN(C)C6)CC5)c(C)c4)nccn23)cc1F [REF 114, 1-(4-((3-(3-fluoro-4-methoxyphenyl)imidazo [1,2-a]pyrazin-8-yl)amino)-2-methylbenzoyl)-N-((1-methylazetidin-3-yl)methyl)piperidine-4-carboxamide]

The remaining lines, values behind:

Compound | IC90 [µM]
CCc1cc(Nc2nccn3c(-c4ccc(OCC#N)c(F)c4F)cnc23)ccc1C(=O)NCCNC(=O)[C@@H](N)CCCN [Example 140, 4-[[3-[4-(cyanomethoxy)-2,3-difluoro-phenyl]imidazo[1,2-a]pyrazin-8-yl]amino]-N-[2-[[(2S)-2,5-diaminopentanoyl]amino]ethyl]-2-ethyl-benzamide formate] | 0.17
COc1ccc(-c2cnc3c(Nc4ccc(C(=O)N(C)CCCC(=O)N5CCNCC5)c(C)c4)nccn23)cc1F [Example 207, 4-[[3-(3-fluoro-4-methoxyphenyl)imidazo[1,2-a]pyrazin-8-yl]amino]-N,2-dimethyl-N-(4-oxo-4-piperazin-1-ylbutyl)benzamide;hydrochlo-ride] | 0.56
COc1ccc(-c2cnc3c(Nc4ccc(C(=O)N(C)CC5OCC(N)CO5)c(C)c4)nccn23)cc1 (stereo not drawn) [Example 153, N-((5-Amino-1,3-dioxan-2-yl)methyl)-4-((3-(4-methoxyphenyl)imidazo[1,2-a]pyrazin-8-yl)amino)-N,2-dimethylbenzamide] | 0.53
CCc1cc(Nc2nccn3c(-c4ccc(OC)c(F)c4F)cnc23)ccc1C(=O)NCCCNC(=O)NCCCN [Example 120] | 0.14
Cc1cc(Nc2nccn3c(-c4ccc(OCC#N)c(F)c4F)cnc23)ccc1C(=O)NCCNC(=O)[C@@H]1C[C@](C)(O)CN1 [Example 133, (2S,4S)-N-[2-[[4-[[3-[4-(cyanomethoxy)-2,3-difluoro-phenyl]imidazo[1,2-a]pyrazin-8-yl]amino]-2-methyl-benzoyl]amino]ethyl]-4-hydroxy-4-methyl-pyrrolidine-2-carboxamide formate] | 0.09
COc1ccc(-c2cnc3c(Nc4ccc(C(=O)N(C)CCCC5OCC(N)CO5)c(C)c4)nccn23)cc1F (stereo not drawn) [Example 192, N-[3-(5-amino-1,3-dioxan-2-yl)propyl]-4-[[3-(3-fluoro-4-methoxyphenyl)imidazo[1,2-a]pyrazin-8-yl]amino]-N,2-dimethylbenzamide] | 0.34
Cc1cc(Nc2nccn3c(-c4ccc(Cl)c(F)c4F)cnc23)ccc1C(=O)NCCCCN [Example 202, N-(4-aminobutyl)-4-[[3-(4-chloro-2,3 difluorophenyl)imidazo[1,2-a]pyrazin-8-yl]amino]-2-methylbenzamide; hydrochlo-ride] | 0.46
